According to US12702686B2, “Antimicrobial therapy” (priority 2021, dated 2026):
Where no end group is shown, it is not given here.

Key:
[1] = test system: Primary normal human keratinocytes (NHEK); test: LDH release cytotoxicity in keratinocytes; assay type: cell-based; conditions: 24 h, increasing concentrations
Description: NHEKs (ThermoFisher) were cultured in EpiLife medium containing 60 μM CaCl2) (ThermoFisher) supplemented with 1× human keratinocyte growth supplement (ThermoFisher) and 1× Antibiotic Antimycotic (Millipore Sigma) at 37° C., 5% CO 2. All experiments performed on NHEKs were between passages 3 and 5 with cells at 70-80% confluency.

[2] = test system: S. pseudintermedius ST71; test: Minimum inhibitory concentration, broth micro dilution; assay type: cell-based, Staphylococcus pseudintermedius; conditions: synthetic peptides, 18 h incubation
Description: MIC values were determined using a broth micro dilution method. Bacterial cells were grown to mid-late log phase, to an OD600 nm value of roughly 1.0 for each bacterial strain and then normalized to 1×10^7 CFU/mL. The PSMβ peptides or butanol extracts were dissolved in DMSO to a stock concentration of 10 mg/ml. The stock concentrations of antibiotics that were water-soluble were prepared with H2O or 100% ethanol if water-insoluble. The 1×10^7 CFU/ml bacterial cultures (10 μl) were aliquoted into 96-well microtiter plates and mixed with 95 μL of media with or without 2-fold dilutions of the conditioned supernatant, PSMβ peptides, butanol extracts or antibiotics and incubated for 16-18 h at 30° C. with shaking at 250 rpm. Growth inhibition was determined by measuring the OD600 nm readings of each well using a microplate reader (SpectraMax iD3, Molecular Devices). The MIC of each bacterial strain was determined by the lowest peptide concentration that inhibited more than 80% bacterial growth.

Compound | cytotoxicity by LDH release [1] | concentration at which S. pseudintermedius growth was inhibited [2]
CC[C@H](C)[C@H](NC(=O)[C@H](Cc1c[nH]c2ccccc12)NC(=O)[C@H](CCCCN)NC(=O)[C@@H](NC(=O)[C@H](CC(C)C)NC(=O)[C@H](CC(=O)O)NC(=O)CNC(=O)[C@@H](NC(=O)[C@@H](NC(=O)[C@H](CO)NC(=O)[C@@H](NC(=O)[C@@H](NC(=O)[C@H](CC(=O)O)NC(=O)[C@H](C)NC(=O)[C@H](C)NC(=O)[C@H](CCSC)NC=O)[C@@H](C)CC)[C@@H](C)CC)[C@@H](C)O)[C@@H](C)CC)C(C)C)C(=O)N[C@H](C(=O)N[C@@H](CC(=O)O)C(=O)N[C@H](C(=O)N[C@H](C(=O)N[C@@H](CC(N)=O)C(=O)N[C@@H](CCCCN)C(=O)N[C@@H](Cc1ccccc1)C(=O)N[C@@H](CCCCN)C(=O)N[C@@H](CCCCN)C(=O)O)C(C)C)[C@@H](C)O)[C@@H](C)CC [PSMγ] | highly cytotoxic | –
Non-Formyl-MSKLTRVIVTSIMTVGFLTATLGLTAGNADAKLEGNGTLSQKQYQRLASQQF (H-MSKLTRVIVTSIMTVGFLTATLGLTAGNADAKLEGNGTLSQKQYQRLASQQF; listed as Staphylococcus felis) [EF-hand domain-containing peptide] | – | > 200 µg/mL
